Values joined by “and” are separate entries in the source; they are usually repeats but may differ in a detail not shown here. Equal entries are not always repeated. Where two headings read alike, the source gives them in different places.
Legend:
[1] = molecular target: TNKS2 (Homo sapiens (Human), UniProt Q9H2K2); experiment: Biochemical IC50 TNKS2
Source text: (§1) XLfit (idbs) was used to determine the IC50-values in inhibition experiments. The following formula was chosen to fit the data points (Langmuir Binding Isotherm): fit=((A+(B*x))+4(C−B)*(1−exp((−1*D)*x)))/D)), res=(y−fit)

[2] = system: HEK293; experiment: Cellular IC50 HEK293; assay type: cell-based
Source text: as §1

[3] = read-out: Biochemical IC50 TNKS2
[4] = Homo sapiens, HEK293, HEK293; read-out: Cellular IC50 HEK293
[5] = Homo sapiens, HEK293, read-out: Cellular IC50 HEK293
[6] = Homo sapiens, HEK293; read-out: Cellular IC50 HEK293

Chain of TNKS2 (Q9H2K2 whole entry): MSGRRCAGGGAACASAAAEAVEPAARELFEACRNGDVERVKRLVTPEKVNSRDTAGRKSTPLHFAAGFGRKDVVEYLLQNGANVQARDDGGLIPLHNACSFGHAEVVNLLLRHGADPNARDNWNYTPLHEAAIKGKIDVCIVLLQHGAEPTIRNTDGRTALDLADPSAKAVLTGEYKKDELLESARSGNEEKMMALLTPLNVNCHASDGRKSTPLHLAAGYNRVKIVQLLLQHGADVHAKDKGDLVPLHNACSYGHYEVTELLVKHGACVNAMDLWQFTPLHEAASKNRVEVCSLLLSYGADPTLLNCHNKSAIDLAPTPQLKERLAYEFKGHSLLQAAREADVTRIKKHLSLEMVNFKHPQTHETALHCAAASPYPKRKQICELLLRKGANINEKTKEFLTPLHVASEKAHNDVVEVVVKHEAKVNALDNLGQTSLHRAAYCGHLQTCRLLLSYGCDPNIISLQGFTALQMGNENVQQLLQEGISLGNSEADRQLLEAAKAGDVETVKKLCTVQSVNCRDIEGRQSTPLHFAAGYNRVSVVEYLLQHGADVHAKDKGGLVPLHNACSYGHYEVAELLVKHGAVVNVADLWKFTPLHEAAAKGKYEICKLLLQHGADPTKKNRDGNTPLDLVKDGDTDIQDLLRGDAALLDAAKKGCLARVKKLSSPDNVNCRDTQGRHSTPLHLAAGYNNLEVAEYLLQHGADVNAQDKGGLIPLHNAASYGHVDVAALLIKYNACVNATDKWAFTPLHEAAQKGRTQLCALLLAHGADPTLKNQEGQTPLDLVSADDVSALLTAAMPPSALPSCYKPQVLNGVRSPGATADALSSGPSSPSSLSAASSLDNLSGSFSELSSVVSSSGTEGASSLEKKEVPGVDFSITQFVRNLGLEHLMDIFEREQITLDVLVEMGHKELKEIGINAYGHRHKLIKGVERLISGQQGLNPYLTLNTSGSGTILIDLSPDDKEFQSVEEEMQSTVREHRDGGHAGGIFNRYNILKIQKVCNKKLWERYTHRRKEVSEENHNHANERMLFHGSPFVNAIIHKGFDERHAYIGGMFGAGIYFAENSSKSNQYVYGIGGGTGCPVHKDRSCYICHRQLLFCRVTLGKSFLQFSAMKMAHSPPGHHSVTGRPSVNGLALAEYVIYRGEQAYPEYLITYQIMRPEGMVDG

| SMILES | IC50 [1, 3] | IC50 [2, 4] | IC50 [1] | IC50 [2, 5] | IC50 [2, 6] |
| --- | --- | --- | --- | --- | --- |
| CCOc1ccc(-c2nnc([C@H]3C[C@H](NC(=O)c4ccc5cccnc5n4)C3)n2-c2ccccc2F)nc1 [Example 147, N-((1S,3r)-3-(5-(5-ethoxypyridin-2-yl)-4-(2-fluorophenyl)-4H-1,2,4-triazol-3-yl)cyclobutyl)-1,8-naphthyridine-2-carboxamide] | 19 nM | 78 nM |  |  |  |
| O=C(N[C@H]1C[C@H](c2nnc(-c3ccncn3)n2-c2ccccc2Cl)C1)c1cccc2cccnc12 [Example 4, N-((1S,3r)-3-(4-(2-chlorophenyl)-5-(pyrimidin-4-yl)-4H-1,2,4-triazol-3-yl)cyclobutyl)quinoline-8-carboxamide] | 5.4 nM | 1 nM |  |  |  |
| CCOc1ccc(-c2nnc([C@H]3C[C@H](NC(=O)c4ccc5cc[nH]c5n4)C3)n2-c2ccccc2F)nc1 [Example 98, N-((1S,3r)-3-(5-(5-ethoxypyridin-2-yl)-4-(2-fluorophenyl)-4H-1,2,4-triazol-3-yl)cyclobutyl)-1H-pyrrolo[2,3-b]pyridine-6-carboxamide] | 4.9 nM | 14 nM |  |  |  |
| CCOc1ccc(-c2nnc([C@H]3C[C@H](NC(=O)c4cc5cccnc5[nH]4)C3)n2-c2ccccc2F)nc1 [Example 152, N-((1S,3r)-3-(5-(5-ethoxypyridin-2-yl)-4-(2-fluorophenyl)-4H-1,2,4-triazol-3-yl)cyclobutyl)-1H-pyrrolo[2,3-b]pyridine-2-carboxamide] | 19 nM | 144 nM |  |  |  |
| CCOc1ccc(-c2nnc([C@H]3C[C@H](NC(=O)c4ccnc5cccnc45)C3)n2-c2ccccc2Cl)nc1 [Example 135, N-((1S,3r)-3-(4-(2-chlorophenyl)-5-(5-ethoxypyridin-2-yl)-4H-1,2,4-triazol-3-yl)cyclobutyl)-1,5-naphthyridine-4-carboxamide] | 1.9 nM | 0.33 nM |  |  |  |
| CCOc1ccc(-c2nnc([C@H]3C[C@H](NC(=O)c4cc5ccccc5cn4)C3)n2-c2ccccc2F)nc1 [Example 99, N-((1S,3r)-3-(5-(5-ethoxypyridin-2-yl)-4-(2-fluorophenyl)-4H-1,2,4-triazol-3-yl)cyclobutyl)isoquinoline-3-carboxamide] | 5.4 nM | 18 nM |  |  |  |
| [2H]C([2H])([2H])Oc1ccc(-c2nnc([C@H]3C[C@H](NC(=O)c4ccccn4)C3)n2-c2ccccc2F)nc1 [Example 113, N-((1S,3r)-3-(4-(2-fluorophenyl)-5-(5-(methoxy-d3)pyridin-2-yl)-4H-1,2,4-triazol-3-yl)cyclobutyl)picolinamide] |  | 74 nM | 5.6 nM |  |  |
| CCOc1ccc(C(=O)N[C@H]2C[C@H](c3nnc(-c4ccncn4)n3-c3ccccc3Cl)C2)nc1 [Example 130, N-((1R,3r)-3-(4-(2-chlorophenyl)-5-(pyrimidin-4-yl)-4H-1,2,4-triazol-3-yl)cyclobutyl)-5-ethoxypicolinamide] | 4.8 nM | 1.4 nM |  |  |  |
| CCOc1ccc(-c2nnc([C@H]3C[C@H](NC(=O)c4ccnc5cc(F)cnc45)C3)n2-c2ccccn2)nc1 [Example 160, N-((1r,3r)-3-(5-(5-ethoxypyridin-2-yl)-4-(pyridin-2-yl)-4H-1,2,4-triazol-3-yl)cyclobutyl)-7-fluoro-1,5-naphthyridine-4-carboxamide] | 22 nM |  |  | 9 nM |  |
| CCOc1ccc(-c2nnc([C@H]3C[C@H](NC(=O)c4ccccc4)C3)n2-c2ccccc2F)nc1 [Example 52, N-((1S,3r)-3-(5-(5-ethoxypyridin-2-yl)-4-(2-fluorophenyl)-4H-1,2,4-triazol-3-yl)cyclobutyl)benzamide] | 9.5 nM | 73 nM |  |  |  |
| O=C(N[C@H]1C[C@H](c2nnc(-c3nccs3)n2-c2ccccc2)C1)c1ccc(F)cc1 [Example 35, 4-fluoro-N-((1r,3r)-3-(4-phenyl-5-(thiazol-2-yl)-4H-1,2,4-triazol-3-yl)cyclobutyl)benzamide] | 120 nM | 580 nM |  |  |  |
| CCOc1ccc(-c2nnc([C@H]3C[C@H](NC(=O)c4ccc5cc(F)ccc5n4)C3)n2-c2ccccc2F)nc1 [Example 155, N-((1S,3r)-3-(5-(5-ethoxypyridin-2-yl)-4-(2-fluorophenyl)-4H-1,2,4-triazol-3-yl)cyclobutyl)-6-fluoroquinoline-2-carboxamide] | 9.1 nM | 12 nM |  |  |  |
| CCOc1ccc(-c2nnc([C@H]3C[C@H](NC(=O)c4ccccn4)C3)n2-c2ccccc2Cl)nc1 [Example 134, N-((1S,3r)-3-(4-(2-chlorophenyl)-5-(5-ethoxypyridin-2-yl)-4H-1,2,4-triazol-3-yl)cyclobutyl)picolinamide] | 3.7 nM | 4.5 nM |  |  |  |
| O=C(N[C@H]1C[C@H](c2nnc(-c3nccs3)n2-c2cccnc2)C1)c1cccc2cccnc12 [Example 114, N-((1r,3r)-3-(4-(pyridin-3-yl)-5-(thiazol-2-yl)-4H-1,2,4-triazol-3-yl)cyclobutyl)quinoline-8-carboxamide] | 20 nM | 230 nM |  |  |  |
| CCOc1ccc(C(=O)N[C@H]2C[C@H](c3nnc(-c4nccs4)n3-c3ccccc3F)C2)nc1 [Example 30, 5-ethoxy-N-((1S,3r)-3-(4-(2-fluorophenyl)-5-(thiazol-2-yl)-4H-1,2,4-triazol-3-yl)cyclobutyl)picolinamide] | 2 nM | 16 nM |  |  |  |
| O=C(NC12CC(c3nnc(-c4ccncn4)n3-c3ccccc3Cl)(C1)C2)c1ccnc2cccnc12 [Example 21, N-(3-(4-(2-chlorophenyl)-5-(pyrimidin-4-yl)-4H-1,2,4-triazol-3-yl)bicyclo[1.1.1]pentan-1-yl)-1,5-naphthyridine-4-carboxamide] | 1.8 nM | 0.5 nM |  |  |  |
| CCOc1ccc(-c2nnc([C@H]3C[C@H](NC(=O)c4cc5ncccc5[nH]4)C3)n2-c2ccccc2F)nc1 [Example 148, N-((1S,3r)-3-(5-(5-ethoxypyridin-2-yl)-4-(2-fluorophenyl)-4H-1,2,4-triazol-3-yl)cyclobutyl)-1H-pyrrolo[3,2-b]pyridine-2-carboxamide] | 5 nM | 8 nM |  |  |  |
| CCOc1ccc(-c2nnc([C@H]3C[C@H](NC(=O)c4ccccc4)C3)n2-c2ccccc2)nc1 [Example 72, N-((1r,3r)-3-(5-(5-ethoxypyridin-2-yl)-4-phenyl-4H-1,2,4-triazol-3-yl)cyclobutyl)benzamide] | 14 nM | 30 nM |  |  |  |
| CCOc1ccc(-c2nnc([C@H]3C[C@H](NC(=O)c4cccc5cccnc45)C3)n2-c2ccc(C)s2)nc1 [Example 83, N-((1r,3r)-3-(5-(5-ethoxypyridin-2-yl)-4-(5-methylthiophen-2-yl)-4H-1,2,4-triazol-3-yl)cyclobutyl)quinoline-8-carboxamide] | 2.4 nM |  |  | 1 nM |  |
| O=C(NC12CC(c3nnc(-c4ccncn4)n3-c3ccccc3Cl)(C1)C2)c1ccccn1 [Example 22, N-(3-(4-(2-chlorophenyl)-5-(pyrimidin-4-yl)-4H-1,2,4-triazol-3-yl)bicyclo[1.1.1]pentan-1-yl)picolinamide] | 3.8 nM | 25 nM |  |  |  |
| O=C(N[C@H]1C[C@H](c2nnc(-c3ccc(OC4CC4)cn3)n2-c2ccccc2F)C1)c1ccccn1 [Example 106, N-((1S,3r)-3-(5-(5-cyclopropoxypyridin-2-yl)-4-(2-fluorophenyl)-4H-1,2,4-triazol-3-yl)cyclobutyl)picolinamide] | 8.6 nM |  |  | 49 nM |  |
| O=C(N[C@H]1C[C@H](c2nnc(-c3ccncn3)n2-c2ccccc2Cl)C1)c1cccc2ncccc12 [Example 7, N-((1S,3r)-3-(4-(2-chlorophenyl)-5-(pyrimidin-4-yl)-4H-1,2,4-triazol-3-yl)cyclobutyl)quinoline-5-carboxamide] | 350 nM | 750 nM |  |  |  |
| O=C(N[C@H]1C[C@H](c2nnc(-c3nccs3)n2-c2ccccc2F)C1)c1ccnc2cc(F)cnc12 [Example 29, 7-fluoro-N-((1S,3r)-3-(4-(2-fluorophenyl)-5-(thiazol-2-yl)-4H-1,2,4-triazol-3-yl)cyclobutyl)-1,5-naphthyridine-4-carboxamide] |  | 1.3 nM |  |  |  |
| CCOc1ccc(-c2nnc([C@H]3C[C@H](NC(=O)c4ccc(F)cc4)C3)n2-c2ccccc2F)nc1 [Example 56, N-((1S,3r)-3-(5-(5-ethoxypyridin-2-yl)-4-(2-fluorophenyl)-4H-1,2,4-triazol-3-yl)cyclobutyl)-4-fluorobenzamide] | 10 nM and 2 nM |  |  |  |  |
| CCOc1ccc(-c2nnc([C@H]3C[C@H](NC(=O)c4cccc5nccnc45)C3)n2-c2ccccc2F)nc1 [Example 154, N-((1S,3r)-3-(5-(5-ethoxypyridin-2-yl)-4-(2-fluorophenyl)-4H-1,2,4-triazol-3-yl)cyclobutyl)quinoxaline-5-carboxamide] |  |  |  | 0.53 nM |  |
| [2H]C([2H])([2H])C([2H])([2H])Oc1ccc(-c2nnc([C@H]3C[C@H](NC(=O)c4ccccn4)C3)n2-c2ccccc2F)nc1 [Example 93, N-((1S,3r)-3-(5-(5-(ethoxy-d5)pyridin-2-yl)-4-(2-fluorophenyl)-4H-1,2,4-triazol-3-yl)cyclobutyl)picolinamide] |  |  |  |  | 9.5 nM |
| CCOc1ccc(-c2nnc([C@H]3C[C@H](NC(=O)c4ccccn4)C3)n2-c2ccccc2F)nc1 [Example 54, N-((1S,3r)-3-(5-(5-ethoxypyridin-2-yl)-4-(2-fluorophenyl)-4H-1,2,4-triazol-3-yl)cyclobutyl)picolinamide] |  |  |  |  | 17 nM |
| O=C(N[C@H]1C[C@H](c2nnc(-c3ccncn3)n2-c2ccccc2Cl)C1)c1c(F)cccc1F [Example 16, N-((1S,3r)-3-(4-(2-chlorophenyl)-5-(pyrimidin-4-yl)-4H-1,2,4-triazol-3-yl)cyclobutyl)-2,6-difluorobenzamide] |  | 7680 nM |  |  |  |
| CCOc1ccc(-c2nnc([C@H]3C[C@H](NC(=O)c4cccc5cccnc45)C3)n2-c2ccccc2)nc1 [Example 71, N-((1r,3r)-3-(5-(5-ethoxypyridin-2-yl)-4-phenyl-4H-1,2,4-triazol-3-yl)cyclobutyl)quinoline-8-carboxamide] |  | 1.8 nM |  |  |  |

Reference: patent US11926614B2, “1,2,4-triazole derivatives as tankyrase inhibitors” (priority 2018, dated 2024)
